Assay [1] has as its system primary human T-cells. Description: Proliferation assay after 5 days (CellTiter-Glo, CD3 stimulation; PBS counter screen). The following applies: Homo sapiens, T-cell, 120 h, CD3 stimulation; for Emax: 5 days, normalized to reference compound A1 as stimulator control = 100%, DMSO neutral control, read-out: Emax proliferation (% activation); for EC50: primary human T-cells, CellTiter-Glo after 5 days, EC50 of fitted sigmoidal curve, read-out: Tcell Proliferation CD3 EC50. The format is cell-based. In a few lines:
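Compounds were added to medium-only plates, and proliferation was read 5 days later as luminescence from CellTiter-Glo 2.0, whose ATP signal is proportional to cell number. Plates and reagent were equilibrated to room temperature for 45 min before an equal volume of reagent was added, with 15 min rocking.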

The subject of assay [2] is primary human T-cells.
Description: As readouts for T-cell activation, IL2 secretion after 24 hours and proliferation after 5 days was measured. Increases in IL2 secretion and proliferation upon compound treatment were assessed as the % of the maximum of reference compound A1. […] As a counter screen and to make sure that no unwanted TCR-independent activation was triggered, PBS conditions were run for all compounds.
For coating of plates, PBS++ with PBS−− or PBS++ with CD3 antibody (concentration depending on donor and determined by CD3 titrations) was added 100 μl/well to Poly-D Lysine coated 96-well plates. Plates were sealed and incubated at room temperature for 3 hours on a table-top rocking platform. After incubation, plates were washed once with PBS−− and filled with 40 μl/well culture medium only. Compounds were then added (see next section) to medium only plates. After 3 hours of culturing the T-cells, cells were filtered through a cell strainer (Miltenyi Biotech, #130-041-407), counted again and concentration was adjusted to 1.25 Mio/ml.
Cells were then seeded 80 μl/well to the 40 μl/well including dispensed compounds according to plate layout. By adding cells, compounds were further diluted 1:3, and resulting in 100 k cells/120 μl/well. After 24 hours 40 μl of supernatant was collected carefully from the top while not disturbing the cells and transferred into a round bottom 96 well plate. Collected and frozen supernatant was used for detection of IL2 using the IL-2 Human ProQuantum Immunoassay Kit (Invitrogen) or using the Human IL-2 ELISA Kit (Thermo Fisher).
Compounds were added in a 5 or 6pt dose response with the Tecan D300e Digital Dispenser, all conditions 3 times more concentrated than the end-concentration, since cells are added afterwards (80 μl cells to 40 μl prepared medium with treatment). The DR was starting at 20 μM or 10 μM final top concentration and a dilution factor of 3.333. The positive control was the reference compound A1 that was added in a dose response as well, additionally to 3 wells of only 20 μM representing the positive stimulator control. All wells were normalized with DMSO to a final concentration of 0.6% (0.2% end-concentration).
The immunoassay is done following the manufacturer's manual (Invitrogen, #A35603). Additional information: For the immunoassay, MicroAmp™ EnduraPlate™ Optical 384-Well plates are used. Frozen supernatant is thawed and centrifuged for 5 minutes at 1000×g, both steps at 4° C. After centrifugation, required sample amount is taken from the top, and in a separate LightCycler V-bottom plate (working plate) diluted with assay dilution buffer, dilution factor depending on the PBS or CD3 condition but at least 1:3. IL-2 standard and blanks are prepared in the same V-bottom plate, standard with a range of 0.0128-5000 pg/ml (extended version). After preparation, 5 μl of sample dilutions or standard/blanks are transferred to the optical 384-well plate (assay plate) and the 10 μl reaction protocol is being followed. For measurement, the QuantStudio 12K Flex system is used.
ELISA is done following the manufacturer's manual (Thermo Fisher Scientific, #88-7025-88). Additional information: For the ELISA Nunc MaxiSorp 96 well plates are used. Frozen supernatant is thawed and centrifuged for 5 minutes at 1000×g, both steps at 4° C. After that, required sample amount is taken from the top, and in a separate V-bottom plate diluted with ELISA diluent, dilution factor depending on the PBS or CD3 condition. IL-2 standard and blanks are prepared in the same V-bottom plate. After preparation, 50 μl of sample dilutions and 100 μl of standard or blanks are transferred to the Nunc plates.
CD3 and PBS plates were analysed separately in Genedata Screener using Roche Normalization PCT_POS_CTRL with DMSO set as Neutral Control and 20 μM of the reference compound A1 set as Stimulator Control/100%.
For CD3 conditions EC50 and Emax of the fitted sigmoidal curve were reported.

Where two headings read alike, the source gives them in different places.

In the case of `CCn1ccc(-c2cc3c(cc2F)S(=O)(=O)C[C@H](N)C(=O)N3Cc2ccc(Cl)cc2)n1` [Example 280, (3R)-3-amino-5-[(4-chlorophenyl)methyl]-7-(1-ethylpyrazol-3-yl)-8-fluoro-1,1-dioxo-2,3-dihydro-1λ^6,5-benzothiazepin-4-one], in assay [1], the Emax was 52% and the EC50 worked out at 19.5 µM. The compound also came in with an EC50 in assay [2] of 0.853 µM.

Consider `CN1CC(n2cc(-c3cc4c(cc3F)S(=O)(=O)C[C@H](N)C(=O)N4Cc3ccc(Cl)cc3)cn2)CC(F)(F)C1` (stereo partly drawn) [Example 281, (3R)-3-amino-5-[(4-chlorophenyl)methyl]-7-[1-(5,5-difluoro-1-methyl-3-piperidyl)pyrazol-4-yl]-8-fluoro-1,1-dioxo-2,3-dihydro-1λ^6,5-benzothiazepin-4-one], for which, in assay [1], the Emax came out at 89% and the EC50 turned out to be 1.04 µM. Further, the EC50 in assay [2] was greater than 10 µM.

For `CC(C)(C)c1ccn(-c2cc3c(cc2F)S(=O)(=O)C[C@H](N)C(=O)N3Cc2ccc(Cl)cc2)n1` [Example 283, (3R)-3-amino-7-(3-tert-butylpyrazol-1-yl)-5-[(4-chlorophenyl)methyl]-8-fluoro-1,1-dioxo-2,3-dihydro-1λ^6,5-benzothiazepin-4-one], the Emax in assay [1] was found to be 67%. The EC50 was 5.49 µM in assay [1] and 1.01 µM in assay [2].

For the compound `CCc1cnn(-c2cc3c(cc2F)S(=O)(=O)C[C@H](N)C(=O)N3Cc2ccc(Cl)cc2)c1` [Example 284, (3R)-3-amino-5-[(4-chlorophenyl)methyl]-7-(4-ethylpyrazol-1-yl)-8-fluoro-1,1-dioxo-2,3-dihydro-1λ^6,5-benzothiazepin-4-one], in assay [1], the Emax is 30% and the EC50 turned out to be 5.49 µM. In addition, the EC50 in assay [2] was greater than 20 µM.

Consider `CCn1cnc(-c2cc3c(cc2F)S(=O)(=O)C[C@H](N)C(=O)N3Cc2ccc(Cl)cc2)n1` [Example 285, (3R)-3-amino-5-[(4-chlorophenyl)methyl]-7-(1-ethyl-1,2,4-triazol-3-yl)-8-fluoro-1,1-dioxo-2,3-dihydro-1λ^6,5-benzothiazepin-4-one], for which, in assay [1], the Emax turned out to be 60% and the EC50 came to 5.49 µM. The compound also displayed an EC50 in assay [2] of 9.37 µM.

As to `CC(C)(C)n1ccc(-c2cc3c(cc2F)S(=O)(=O)C[C@H](N)C(=O)N3Cc2ccc(Cl)cc2)n1` [Example 287, (3R)-3-amino-7-(1-tert-butylpyrazol-3-yl)-5-[(4-chlorophenyl)methyl]-8-fluoro-1,1-dioxo-2,3-dihydro-1λ^6,5-benzothiazepin-4-one], the Emax in assay [1] was 66%. Besides, the EC50 in assay [1] is 2.21 µM; in assay [2], 19.3 µM.

Turning to `N[C@H]1CS(=O)(=O)c2cc(F)c(-c3nc4n(n3)CCNC4C(F)(F)F)cc2N(Cc2ccc(OC(F)(F)F)cc2)C1=O` (stereo partly drawn) [Example 288, (3R)-3-amino-8-fluoro-1,1-dioxo-5-[[4-(trifluoromethoxy)phenyl]methyl]-7-[8-(trifluoromethyl)-5,6,7,8-tetrahydro-[1,2,4]triazolo[1,5-a]pyrazin-2-yl]-2,3-dihydro-1λ^6,5-benzothiazepin-4-one], in assay [1], the Emax turned out to be 71% and the EC50 was determined as 4.31 µM. For the same compound, in assay [2], the EC50 is greater than 10 µM.

As for `N[C@H]1CS(=O)(=O)c2cc(F)c(-c3noc(C(=O)NCC(F)(F)F)n3)cc2N(Cc2ccc(Cl)cc2)C1=O` [Example 291, 3-[(3R)-3-amino-5-[(4-chlorophenyl)methyl]-8-fluoro-1,1,4-trioxo-2,3-dihydro-1λ^6,5-benzothiazepin-7-yl]-N-(2,2,2-trifluoroethyl)-1,2,4-oxadiazole-5-carboxamide], the Emax in assay [1] was 104%. Also, the EC50 in assay [1] is 0.446 µM; in assay [2], 1.7 µM.

Source of the values: patent US20240368150A1 (Hoffmann-La Roche Inc., priority 2021, published 2024).
